The text below walks through data of patent publication US9624209B2, “Substituted phenylureas and phenylamides as vanilloid receptor ligands” (Gruenenthal GmbH, priority 2009, dated 2017).

SMILES strings stand for the structures.

The target of the experiment is T1, vanilloid receptor 1 (VR1/TRPV1 receptor) (Homo sapiens, UniProt Q8NER1).
T1 construct: expressed in transfected cells; host or cells: CHO K1 cells (ECACC), stably transfected
The experiment in a line: VR1/TRPV1 receptor affinity, capsaicin stimulus (human). The note with it: for inhibition at 5 µM: Tables 8-12, read-out: (f) Ki (human being) [nM] Cap: inhibition (as a percentage); for Ki: Tables 8-12, read-out: (f) Ki (human being) [nM] Cap. The arrangement: key to (f) Ki (human being) [nM] Cap: result in words: AG=agonist; pAG=partial agonist; NE=no effect. The format is cell-based, human being.

T1 sequence (Q8NER1 whole entry): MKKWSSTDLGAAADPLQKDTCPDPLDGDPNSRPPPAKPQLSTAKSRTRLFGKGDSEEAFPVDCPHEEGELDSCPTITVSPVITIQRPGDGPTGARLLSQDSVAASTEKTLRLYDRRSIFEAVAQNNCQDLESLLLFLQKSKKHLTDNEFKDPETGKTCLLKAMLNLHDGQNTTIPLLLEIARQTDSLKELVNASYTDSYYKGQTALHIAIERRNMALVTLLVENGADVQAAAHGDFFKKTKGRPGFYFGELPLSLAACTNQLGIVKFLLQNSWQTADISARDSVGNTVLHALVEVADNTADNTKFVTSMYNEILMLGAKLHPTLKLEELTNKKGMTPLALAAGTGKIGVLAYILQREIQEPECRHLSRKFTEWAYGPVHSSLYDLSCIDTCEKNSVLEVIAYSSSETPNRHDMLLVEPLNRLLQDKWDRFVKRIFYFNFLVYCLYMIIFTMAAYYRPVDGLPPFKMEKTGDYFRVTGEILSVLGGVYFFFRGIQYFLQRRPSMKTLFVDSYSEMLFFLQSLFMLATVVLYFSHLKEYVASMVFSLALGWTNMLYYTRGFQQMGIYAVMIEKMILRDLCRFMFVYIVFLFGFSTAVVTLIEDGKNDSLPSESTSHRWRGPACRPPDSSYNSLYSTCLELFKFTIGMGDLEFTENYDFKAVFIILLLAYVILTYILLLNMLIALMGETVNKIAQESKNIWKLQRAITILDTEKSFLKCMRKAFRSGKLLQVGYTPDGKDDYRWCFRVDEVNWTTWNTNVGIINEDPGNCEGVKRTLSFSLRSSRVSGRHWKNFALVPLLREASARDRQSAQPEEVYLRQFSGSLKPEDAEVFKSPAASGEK

The term inhibition denotes the percentage by which the read-out fell short of the control. `O=C(NCc1cc(C(F)(F)F)nn1-c1cccc(F)c1)Nc1ccc(N2CC(O)C2)c(F)c1` [Example C9, 1-[3-Fluoro-4-(3-hydroxy-azetidin-1-yl)-phenyl]-3-[[2-(3-fluorophenyl)-5-(trifluoromethyl)-2H-pyrazol-3-yl]-methyl]-urea]: the inhibition at 5 µM is 50%.

Turning to `CC(C(=O)NCc1cc(C(C)(C)C)nn1-c1cccc(Cl)c1)c1ccc(S(C)(=O)=O)c(F)c1` (stereo not drawn) [Example D1, N-[[5-tert-Butyl-2-(3-chlorophenyl)-2H-pyrazol-3-yl]-methyl]-2-(3-fluoro-4-methylsulfonyl-phenyl)-propionamide], the “(f) Ki (human being) [nM] Cap: result in words” value (Tables 8-12) is “AG”.

As a reminder, the Ki is the equilibrium dissociation constant of an inhibitor or competing ligand from its target. Regarding `CC(C(=O)NCc1cc(C(F)(F)F)nn1-c1cccc(Cl)c1)c1ccc(S(C)(=O)=O)c(F)c1` (stereo not drawn) [Example D2, N-[[2-(3-Chlorophenyl)-5-(trifluoromethyl)-2H-pyrazol-3-yl]-methyl]-2-(3-fluoro-4-methylsulfonyl-phenyl)-propionamide], the Ki turned out to be 73 nM.

In the case of `CC(C(=O)NCc1cc(C(F)(F)F)nn1-c1cccc(F)c1)c1ccc(S(C)(=O)=O)c(F)c1` (stereo not drawn) [Example D3, 2-(3-Fluoro-4-methylsulfonyl-phenyl)-N-[[2-(3-fluorophenyl)-5-(trifluoromethyl)-2H-pyrazol-3-yl]-methyl]-propionamide], the inhibition at 5 µM is 55%.

Consider `CC(C(=O)NCc1cc(C(F)(F)F)nn1-c1ccc(F)c(Cl)c1)c1ccc(S(C)(=O)=O)c(F)c1` (stereo not drawn) [Example D4, N-[[2-(3-Chloro-4-fluoro-phenyl)-5-(trifluoromethyl)-2H-pyrazol-3-yl]-methyl]-2-(3-fluoro-4-methylsulfonyl-phenyl)-propionamide], for which the Ki came out at 41 nM.

Consider `CC(C(=O)NCc1cc(C(F)(F)F)nn1-c1cccc(Cl)c1)c1ccc(S(C)(=O)=O)c(Cl)c1` (stereo not drawn) [Example D5, 2-(3-Chloro-4-methylsulfonyl-phenyl)-N-[[2-(3-chlorophenyl)-5-(trifluoromethyl)-2H-pyrazol-3-yl]-methyl]-propionamide], for which the Ki turned out to be 7 nM.

Regarding `CC(C(=O)NCc1cc(C(F)(F)F)nn1-c1cccc(Cl)c1)c1ccc(CS(C)(=O)=O)c(F)c1` (stereo not drawn) [Example D6, N-[[2-(3-Chlorophenyl)-5-(trifluoromethyl)-2H-pyrazol-3-yl]-methyl]-2-[3-fluoro-4-(methylsulfonyl-methyl)-phenyl]-propionamide], the Ki amounted to 38 nM.

For the molecule `CC(C(=O)NCc1cc(C(C)(C)C)nn1-c1cccc(Cl)c1)c1ccc(CS(C)(=O)=O)c(F)c1` (stereo not drawn) [Example D7, N-[[5-tert-Butyl-2-(3-chlorophenyl)-2H-pyrazol-3-yl]-methyl]-2-[3-fluoro-4-(methylsulfonyl-methyl)-phenyl]-propionamide], the Ki came to 27 nM.

In the case of `CC(C(=O)NCc1cc(C(C)(C)C)nn1-c1ccc(F)c(Cl)c1)c1ccc(CS(C)(=O)=O)c(F)c1` (stereo not drawn) [Example D8, N-[[5-tert-Butyl-2-(3-chloro-4-fluoro-phenyl)-2H-pyrazol-3-yl]-methyl]-2-[3-fluoro-4-(methylsulfonyl-methyl)-phenyl]-propionamide], the Ki was 48 nM.

With `CC(C(=O)NCc1cc(C(C)(C)C)nn1-c1cccc(F)c1)c1ccc(CS(C)(=O)=O)c(F)c1` (stereo not drawn) [Example D9, N-[[5-tert-Butyl-2-(3-fluorophenyl)-2H-pyrazol-3-yl]-methyl]-2-[3-fluoro-4-(methylsulfonyl-methyl)-phenyl]-propionamide], the Ki was 30 nM.

With `CC(C(=O)NCc1cc(C(F)(F)F)nn1-c1cccc(F)c1)c1ccc(CS(C)(=O)=O)c(F)c1` (stereo not drawn) [Example D10, 2-[3-Fluoro-4-(methylsulfonyl-methyl)-phenyl]-N-[[2-(3-fluorophenyl)-5-(trifluoromethyl)-2H-pyrazol-3-yl]-methyl]-propionamide], the inhibition constant (Ki) was determined as 75 nM.

For the molecule `CS(=O)(=O)CCc1ccc(NC(=O)NCc2cc(C3CC3)nn2-c2cccc(Cl)c2)cc1F` [Example D26, 1-[[2-(3-Chlorophenyl)-5-cyclopropyl-2H-pyrazol-3-yl]-methyl]-3-[3-fluoro-4-(2-methylsulfonyl-ethyl)-phenyl]-urea], the Ki was 42 nM.

Turning to `CS(=O)(=O)CCc1ccc(NC(=O)NCc2cc(C(F)(F)F)nn2-c2cccc(Cl)c2)cc1F` [Example D27, 1-[[2-(3-Chlorophenyl)-5-(trifluoromethyl)-2H-pyrazol-3-yl]-methyl]-3-[3-fluoro-4-(2-methylsulfonyl-ethyl)-phenyl]-urea], the inhibition constant (Ki) turned out to be 40 nM.

On to `CS(=O)(=O)CCc1ccc(NC(=O)NCc2cc(C(F)(F)F)nn2-c2ccc(F)c(Cl)c2)cc1F` [Example D28, 1-[[2-(3-Chloro-4-fluoro-phenyl)-5-(trifluoromethyl)-2H-pyrazol-3-yl]-methyl]-3-[3-fluoro-4-(2-methylsulfonyl-ethyl)-phenyl]-urea], for which the Ki turned out to be 32 nM.

Take `CC(C)(C)c1cc(CNC(=O)Nc2ccc(CCS(C)(=O)=O)c(F)c2)n(-c2cccc(Cl)c2)n1` [Example D29, 1-[[5-tert-Butyl-2-(3-chlorophenyl)-2H-pyrazol-3-yl]-methyl]-3-[3-fluoro-4-(2-methylsulfonyl-ethyl)-phenyl]-urea]: the Ki was determined as 13 nM.

For `CC(C)(C)c1cc(CNC(=O)Nc2ccc(CCS(C)(=O)=O)c(F)c2)n(-c2cc(F)cc(F)c2)n1` [Example D31, 1-[[5-tert-Butyl-2-(3,5-difluoro-phenyl)-2H-pyrazol-3-yl]-methyl]-3-[3-fluoro-4-(2-methylsulfonyl-ethyl)-phenyl]-urea], the Ki is 15 nM.

In the case of `CC(C)c1cccc(-n2nc(C(F)(F)F)cc2CNC(=O)Nc2ccc(CCS(C)(=O)=O)c(F)c2)c1` [Example D33, 1-[3-Fluoro-4-(2-methylsulfonyl-ethyl)-phenyl]-3-[[2-(3-isopropyl-phenyl)-5-(trifluoromethyl)-2H-pyrazol-3-yl]-methyl]-urea], the Ki turned out to be 4 nM.

As to `CCC(=O)c1ccc(C(C)C(=O)NCc2cc(C(F)(F)F)nn2-c2cccc(F)c2)cc1F` (stereo not drawn) [Example E1, N-[[2-(3-Fluorophenyl)-5-(trifluoromethyl)-2H-pyrazol-3-yl]-methyl]-2-(3-fluoro-4-propanoyl-phenyl)-propionamide], the Ki came to 24 nM.

Regarding `CCC(=O)c1ccc(C(C)C(=O)NCc2cc(C(F)(F)F)nn2-c2cccc(OC)c2)cc1F` (stereo not drawn) [Example E2, 2-(3-Fluoro-4-propanoyl-phenyl)-N-[[2-(3-methoxyphenyl)-5-(trifluoromethyl)-2H-pyrazol-3-yl]-methyl]-propionamide], the inhibition constant Ki stood at 35 nM.

For the molecule `CCC(=O)c1ccc(C(C)C(=O)NCc2cc(C(F)(F)F)nn2-c2ccc(F)c(F)c2)cc1F` (stereo not drawn) [Example E3, N-[[2-(3,4-Difluoro-phenyl)-5-(trifluoromethyl)-2H-pyrazol-3-yl]-methyl]-2-(3-fluoro-4-propanoyl-phenyl)-propionamide], the Ki amounted to 62 nM.

Take `CC(C(=O)NCc1cc(C(F)(F)F)nn1-c1cccc(Cl)c1)c1ccc(C(N)=O)c(F)c1` (stereo not drawn) [Example E4, 4-[1-[[2-(3-Chlorphenyl)-5-(trifluormethyl)-2H-pyrazol-3-yl]-methyl-carbamoyl]-ethyl]-2-fluoro-benzamide]: the inhibition constant Ki amounted to 8 nM.

With `CC(C)(C)c1cc(CNC(=O)Nc2ccc(C(=O)N3CCOCC3)c(F)c2)n(-c2cccc(Cl)c2)n1` [Example E14, 1-[[5-tert-Butyl-2-(3-chlorophenyl)-2H-pyrazol-3-yl]-methyl]-3-[3-fluoro-4-(morpholine-4-carbonyl)-phenyl]-urea], the inhibition at 5 µM worked out at 38%.

Turning to `CC(C(=O)NCc1cc(C(F)(F)F)nn1-c1cccc(Cl)c1)c1ccc(C(=O)N2CCOCC2)c(F)c1` (stereo not drawn) [Example E16, N-[[2-(3-Chlorophenyl)-5-(trifluoromethyl)-2H-pyrazol-3-yl]-methyl]-2-[3-fluoro-4-(morpholine-4-carbonyl)-phenyl]-propionamide], the inhibition at 5 µM was 32%.

As for `CC(C(=O)NCc1cc(C(C)(C)C)nn1-c1cccc(Cl)c1)c1ccc(C(=O)N2CCOCC2)c(F)c1` (stereo not drawn) [Example E17, N-[[5-tert-Butyl-2-(3-chlorophenyl)-2H-pyrazol-3-yl]-methyl]-2-[3-fluoro-4-(morpholine-4-carbonyl)-phenyl]-propionamide], the inhibition at 5 µM came to 42%.

In the case of `O=C(NCc1cc(C(F)(F)F)nn1-c1cccc(Cl)c1)Nc1ccc(C(=O)NCCO)c(F)c1` [Example E18], the Ki worked out at 37 nM.

Take `CN(C(=O)Nc1ccc(C(=O)NC2CCOCC2)c(F)c1)c1cc(C(F)(F)F)nn1-c1cccc(Cl)c1` [Example E22, 4-[[[2-(3-Chlorophenyl)-5-(trifluoromethyl)-2H-pyrazol-3-yl]-methyl-carbamoyl]amino]-2-fluoro-N-tetrahydro-pyran-4-yl-benzamide]: the inhibition at 5 µM worked out at 49%.

Take `CC(C(=O)N(C)c1cc(C(F)(F)F)nn1-c1cccc(Cl)c1)c1ccc(C(=O)NC2CCOCC2)c(F)c1` (stereo not drawn) [Example E23, 4-[1-[[2-(3-Chlorophenyl)-5-(trifluoromethyl)-2H-pyrazol-3-yl]-methyl-carbamoyl]-ethyl]-2-fluoro-N-tetrahydro-pyran-4-yl-benzamide]: the inhibition at 5 µM stood at 24.8%.

For `CC(C(=O)NCc1cc(C(C)(C)C)nn1-c1cccc(Cl)c1)c1ccc(C(=O)Nc2ccc(F)cc2)c(F)c1` (stereo not drawn) [Example E44, 4-[1-[[5-tert-Butyl-2-(3-chlorophenyl)-2H-pyrazol-3-yl]-methyl-carbamoyl]-ethyl-]-2-fluoro-N-(4-fluorophenyl)-benzamide], the Ki worked out at 1 nM.

Take `CC(C(=O)NCc1cc(C(F)(F)F)nn1-c1cccc(Cl)c1)c1ccc(C(=O)Nc2ccc(F)cc2)c(F)c1` (stereo not drawn) [Example E45, 4-[1-[[2-(3-Chlorophenyl)-5-(trifluoromethyl)-2H-pyrazol-3-yl]-methyl-carbamoyl]-ethyl]-2-fluoro-N-(4-fluorophenyl)-benzamide]: the Ki was 0.3 nM.

For the molecule `COc1cc(NC(=O)N(C)c2cc(C(C)(C)C)nn2-c2cccc(Cl)c2)ccc1C(=O)O` [Example E56, 4-[[[5-tert-Butyl-2-(3-chlorophenyl)-2H-pyrazol-3-yl]-methyl-carbamoyl]amino]-2-methoxy-benzoic acid], the inhibition at 5 µM is 52%.
